The source of these data is patent publication US12168006B2, “Cancer therapy by degrading dual MEK signaling” (The Board of Trustees of the University of Illinois, priority 2017, dated 2024).

Structures are written as SMILES. “Also recorded” adds a separate entry of the source.

The subject of one data set is H3122 cells. The data set is described as follows: Long term experiments with EML4-ALK cell line. The conditions noted are these: for cytotoxic effect / cell proliferation: 8 days, PAC-1 2 μM, trametinib 5 nM.
The next data set concerns Lyn. The following applies: Ba/F3 cells; cited from earlier work.
For the next data set, the system named is AKT. The following applies: cited from earlier work.
Another data set deals with caspase-3/-7. The data set is described as follows: Caspase-3/-7 activity assay. Format: cell-based, human.
For a further data set, the system named is CK2. The conditions noted are these: cited from earlier work.
In another data set the target is PKCζ (Homo sapiens, UniProt Q05513). The following applies: cited from earlier work.
For another data set, the target named is Fyn (Homo sapiens, UniProt P06241). The following applies: at 1 μM; cited from earlier work.
The target of another data set is MEK2 (MAP2K2) (Homo sapiens, UniProt P36507). The following applies: at 1 μM; cited from earlier work.
A further data set deals with ERK1/2 (MAPK1) (Homo sapiens, UniProt P28482). The conditions noted are these: cited from earlier work.
The next data set relates to CaMKII. The conditions noted are these: cited from earlier work.
The next data set addresses CDK1 (Homo sapiens, UniProt P06493). The following applies: at 1 μM; cited from earlier work.
A further data set deals with DYRK1A (Homo sapiens, UniProt Q13627). The conditions noted are these: at 1 μM; cited from earlier work.
Another data set concerns the target PKCδ (Homo sapiens, UniProt Q05655). The conditions noted are these: cited from earlier work.
The subject of another data set is PKA. The conditions noted are these: cited from earlier work.
For a further data set, the system named is H1975 cells. In words: Long term experiments with EGFR^T790M cell lines. As for the experimental part: (§1) In 12 well plates, PC-9 GR or H1975 cells were seeded at 2,000 cells per well and allowed to adhere overnight.
The next data set has as its system PC-9 GR cells. The data set is described as follows: Long term experiments with EGFR^T790M cell lines. As for the experimental part: as §1
For data set [1], the system named is BRAF^V600E melanoma, EGFR^T790M, and EML4-ALK NSCLCs. The data set is described as follows: Delay of acquired resistance, summary of long term experiments. The conditions noted are these: added to the kinase inhibitor. Format: cell-based, human. As for the experimental part:
(§2) This assay was performed as described previously. Briefly, 100-250 cells were seeded and allowed to adhere overnight. […] Media was refreshed with new compounds added every 3-4 days.

A further data set deals with MEK1 and MEK2 kinases. The data set is described as follows: Immunoblotting of procaspase-3, MEK1 and MEK2 levels. The format is cell-based, human. The conditions noted are these: Q-VD-OPh 25 μM added concurrently; 48 hours; A375, PC-9 GR, H3122. A general note: Immunoblotting shows a protein as a band on a membrane.
The test system of data set [2] is A375, PC-9 GR, H3122, K-562 cells. The data set is described as follows: Q-VD-OPh protection by flow cytometry. Format: cell-based, human. The conditions noted are these: Q-VD-OPh 25 μM added concurrently; 48 hours. As for the experimental part: A375 (BRAF^V600E) cells were seeded with 70,000 cells/well in 12-well plates and allowed to adhere overnight. The next day, indicated concentrations of PAC-1, vemurafenib, trametinib, and/or Q-VD-OPh were added and cells were incubated at 37° C. for 48 hours. […] The next day, they were incubated with PAC-1, ceritinib, and/or Q-VD-OPh for 48 hours. K-562 cells were seeded with 35,000 cells/well in 12-well plates.

The test system of the next data set is A375 cells. The data set is described as follows: Long term experiments in BRAF^V600E cell lines. Format: cell-based, human. The conditions noted are these: continuous treatment. As for the experimental part: as §2
Another data set relates to PC-9 GR and H1975 cells. The data set is described as follows: Cell viability assay (SRB). The format is cell-based, human. The following applies: 5-day incubation.
Where [3] appears, read: H1975 NSCLC cells, PAC-1 5 μM, up to 48 h.
Setting [4] is: PC-9 GR NSCLC cells, PAC-1 5 μM, up to 48 h.

By IC50 is commonly meant the concentration that gives 50% inhibition.

ERK1/2 (MAPK1), sequence (P28482 2-360 limits assumed): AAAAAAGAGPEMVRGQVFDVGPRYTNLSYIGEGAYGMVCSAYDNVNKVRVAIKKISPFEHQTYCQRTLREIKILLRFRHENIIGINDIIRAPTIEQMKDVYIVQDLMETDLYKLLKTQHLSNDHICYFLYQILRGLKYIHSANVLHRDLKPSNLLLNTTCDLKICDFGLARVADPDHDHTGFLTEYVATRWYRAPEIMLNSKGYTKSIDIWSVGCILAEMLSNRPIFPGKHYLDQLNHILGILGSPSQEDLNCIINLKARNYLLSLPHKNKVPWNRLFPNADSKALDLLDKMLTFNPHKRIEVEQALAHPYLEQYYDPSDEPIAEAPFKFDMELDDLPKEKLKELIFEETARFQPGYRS
PKCδ, sequence (Q05655 whole entry): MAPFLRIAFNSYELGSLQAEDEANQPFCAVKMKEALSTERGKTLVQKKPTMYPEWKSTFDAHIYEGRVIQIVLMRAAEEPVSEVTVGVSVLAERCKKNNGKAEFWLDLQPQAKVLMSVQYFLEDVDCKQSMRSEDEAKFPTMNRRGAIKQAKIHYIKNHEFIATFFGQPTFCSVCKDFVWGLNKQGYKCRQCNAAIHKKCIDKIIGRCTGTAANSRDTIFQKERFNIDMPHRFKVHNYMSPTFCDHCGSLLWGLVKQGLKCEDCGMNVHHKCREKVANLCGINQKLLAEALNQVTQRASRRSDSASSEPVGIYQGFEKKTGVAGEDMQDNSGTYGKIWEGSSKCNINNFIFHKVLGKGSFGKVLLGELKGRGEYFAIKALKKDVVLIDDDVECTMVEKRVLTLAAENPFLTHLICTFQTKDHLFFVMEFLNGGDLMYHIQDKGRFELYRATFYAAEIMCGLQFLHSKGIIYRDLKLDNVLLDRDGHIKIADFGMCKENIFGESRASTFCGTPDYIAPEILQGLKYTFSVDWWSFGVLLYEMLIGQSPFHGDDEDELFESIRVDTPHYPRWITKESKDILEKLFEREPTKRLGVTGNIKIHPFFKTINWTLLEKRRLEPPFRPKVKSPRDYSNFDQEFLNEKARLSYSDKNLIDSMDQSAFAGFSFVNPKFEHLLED
PKCζ, sequence (Q05513 whole entry): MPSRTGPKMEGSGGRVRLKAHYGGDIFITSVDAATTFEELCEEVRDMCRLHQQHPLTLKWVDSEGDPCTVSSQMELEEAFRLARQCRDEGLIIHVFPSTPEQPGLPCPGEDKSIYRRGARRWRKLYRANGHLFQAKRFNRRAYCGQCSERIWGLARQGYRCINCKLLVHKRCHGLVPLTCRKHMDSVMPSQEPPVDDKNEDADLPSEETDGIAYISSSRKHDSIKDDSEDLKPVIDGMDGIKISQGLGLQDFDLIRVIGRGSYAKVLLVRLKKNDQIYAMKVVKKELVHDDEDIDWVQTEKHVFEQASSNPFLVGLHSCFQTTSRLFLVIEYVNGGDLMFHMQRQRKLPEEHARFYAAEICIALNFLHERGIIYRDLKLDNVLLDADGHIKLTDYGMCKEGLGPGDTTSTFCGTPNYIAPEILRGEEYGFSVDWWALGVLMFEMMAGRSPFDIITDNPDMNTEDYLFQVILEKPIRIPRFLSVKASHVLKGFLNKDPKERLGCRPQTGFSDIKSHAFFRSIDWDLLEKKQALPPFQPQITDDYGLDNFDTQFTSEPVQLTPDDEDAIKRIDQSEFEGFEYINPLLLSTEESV
CDK1, sequence (P06493 whole entry, species assumed): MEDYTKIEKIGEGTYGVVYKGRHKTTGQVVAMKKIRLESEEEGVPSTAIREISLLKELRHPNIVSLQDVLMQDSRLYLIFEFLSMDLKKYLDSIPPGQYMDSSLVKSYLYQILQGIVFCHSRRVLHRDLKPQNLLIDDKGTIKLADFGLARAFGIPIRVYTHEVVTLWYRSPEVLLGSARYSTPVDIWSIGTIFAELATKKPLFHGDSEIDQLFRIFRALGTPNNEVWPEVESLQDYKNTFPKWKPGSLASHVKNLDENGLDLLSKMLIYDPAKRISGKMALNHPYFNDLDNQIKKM
CDK1, sequence (P14635 whole entry partner, species assumed): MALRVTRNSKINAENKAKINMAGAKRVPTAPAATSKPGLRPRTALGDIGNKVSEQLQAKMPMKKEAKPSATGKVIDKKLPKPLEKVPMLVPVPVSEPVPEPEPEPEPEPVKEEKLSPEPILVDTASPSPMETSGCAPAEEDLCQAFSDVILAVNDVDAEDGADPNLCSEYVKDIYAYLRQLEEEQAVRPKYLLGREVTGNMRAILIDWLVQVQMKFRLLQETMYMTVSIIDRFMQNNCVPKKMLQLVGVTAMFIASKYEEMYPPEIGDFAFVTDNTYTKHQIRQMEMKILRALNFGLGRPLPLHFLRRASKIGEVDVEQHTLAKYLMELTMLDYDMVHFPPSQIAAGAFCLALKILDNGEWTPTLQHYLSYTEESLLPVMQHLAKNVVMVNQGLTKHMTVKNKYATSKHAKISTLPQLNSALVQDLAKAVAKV
MEK2 (MAP2K2), sequence (P36507 whole entry, species assumed): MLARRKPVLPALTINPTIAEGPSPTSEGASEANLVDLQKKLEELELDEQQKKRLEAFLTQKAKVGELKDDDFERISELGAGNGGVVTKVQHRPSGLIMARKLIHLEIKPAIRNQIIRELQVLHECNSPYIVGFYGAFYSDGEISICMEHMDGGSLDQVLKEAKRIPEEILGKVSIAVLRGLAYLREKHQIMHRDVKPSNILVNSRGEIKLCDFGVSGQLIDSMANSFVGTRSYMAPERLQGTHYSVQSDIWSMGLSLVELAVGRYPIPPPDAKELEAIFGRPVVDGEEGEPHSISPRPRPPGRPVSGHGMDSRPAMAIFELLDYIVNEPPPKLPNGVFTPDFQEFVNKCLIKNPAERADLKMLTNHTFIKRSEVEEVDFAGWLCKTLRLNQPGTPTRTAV
Fyn, sequence (P06241 whole entry, species assumed): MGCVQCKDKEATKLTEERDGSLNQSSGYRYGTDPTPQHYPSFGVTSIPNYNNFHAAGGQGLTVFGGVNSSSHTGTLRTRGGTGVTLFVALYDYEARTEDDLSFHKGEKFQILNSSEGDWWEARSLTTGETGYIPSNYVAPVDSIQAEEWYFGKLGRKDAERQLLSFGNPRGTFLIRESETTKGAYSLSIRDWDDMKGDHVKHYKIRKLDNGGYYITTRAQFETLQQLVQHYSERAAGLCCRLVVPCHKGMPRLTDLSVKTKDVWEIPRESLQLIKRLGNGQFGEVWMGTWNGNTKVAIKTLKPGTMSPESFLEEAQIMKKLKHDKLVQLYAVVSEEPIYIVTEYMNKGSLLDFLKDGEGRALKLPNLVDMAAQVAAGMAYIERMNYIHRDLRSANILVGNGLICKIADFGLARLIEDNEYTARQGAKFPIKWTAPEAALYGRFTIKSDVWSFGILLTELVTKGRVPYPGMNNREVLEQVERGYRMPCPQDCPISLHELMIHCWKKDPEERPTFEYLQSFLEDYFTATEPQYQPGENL
Description for H3122 cells: H3122 cells were seeded at 10,000 cells per well in 6 well plates and allowed to adhere overnight. […] Media was refreshed every 3-4 days with new compounds. At the end of the incubation period, cells were fixed 10% trichloroacetic acid, stained with SRB, imaged using GelDoc XR, and absorbance at 510 nm read using SpectraMax M3 (Molecular Devices) plate reader.
Description for MEK1 and MEK2 kinases: Cells were lysed using RIPA buffer containing phosphatase (BioVision) and protease inhibitor cocktail (Calbiochem). Protein concentration was determined using the BCA assay (Pierce). Cell lysates containing 8-20 μg of protein were loaded into each lane of 4-20% gradient gels (BioRad) and ran for SDS-PAGE. Proteins were transferred onto PDVF membrane (Millipore) for Western blot analysis. Blots were blocked with BSA for one hour followed by incubation with primary antibody overnight (manufacturer's recommended dilutions). Secondary antibody was incubated for one hour. Blots were then imaged with a ChemiDoc Touch after incubation with SuperSignal West Pico Solution following manufacturer's protocols.
Description for PC-9 GR and H1975 cells: Final concentration of DMSO in each well is 0.5%. At the end of 5 days, viability was assessed by the sulforhodamine B (SRB) assay sulforhodamine B (SRB) assay. Briefly, 100 μL of 10% trichloroacetic acid (TCA) was added in each well and the plate was incubated for at least 1 hour at 4° C. After the 4° C. incubation, the plate was washed with water and allowed to dry for at least 1 hour at room temperature. 100 μL of SRB dye (1% w/v) was added to each well and incubated for 30 minutes at room temperature. At the end of the 30 minutes incubation, the plate was washed with 1% acetic acid solution and allowed to dry at room temperature. Finally, 200 μL of Tris solution (pH>10) was added to each well to dissolve the SRB dye. The absorbance of each well was read with a SpectraMax M3 plate reader (Molecular Devices) at 510 nm.
Description for caspase-3/-7: H3122 cells were seeded at 4,000 cells per well and allowed to adhere overnight. […] 10 μM raptinal was used as the positive control throughout the experiment. […] Plates were pre-incubated at 37° C. for 30 minutes in the SpectraMax M3 (Molecular Devices) plate reader and then read for 30 minutes at 3-minute intervals. Slopes for each well were calculated and averaged over six technical replicates. Activity is normalized to the maximal and minimal activity observed within the assay.

Consider `Cc1cc(Nc2ncc(Cl)c(Nc3ccccc3S(=O)(=O)C(C)C)n2)c(OC(C)C)cc1C1CCNCC1` [Ceritinib], for which the “cytotoxic effect / cell proliferation” value in the data set with H3122 cells is recorded as “effective in inhibiting cell proliferation”. In addition, the resistant clones result is “Resistant clones were visible” in the data set on H3122 cells (20 days of treatment) and “dramatic increase” with H3122 cells (32 days of treatment). Further, the IC50 was 2.31 µM in the data set on Lyn and more than 10 µM in the data set on AKT.
In the case of `Cc1ccc(NC(=O)c2ccc(CN3CCN(C)CC3)cc2)cc1Nc1nccc(-c2cccnc2)n1` [Imatinib], the caspase-3 activity entry in the data set on caspase-3/-7 (K-562 cells, PAC-1 7.5 μM) is given as “negligible single-agent activity”. For the same compound, in the data set on CK2, the “Inhibition of CK2 (in words)” value is on record as “Not observed”. For the same compound, at PKCζ, the “Inhibition of PKCζ (in words)” value is listed as “Not observed”. Further, the “% Inhibition of Fyn” value at Fyn was 29.6% at 1 μM. The “% Inhibition of MEK2 (MAP2K2)” value on MEK2 (MAP2K2) was 5.9% at 1 μM. At ERK1/2 (MAPK1), the “Inhibition of ERK1/2 (MAPK1) (in words)” value was “Not observed”. In the data set on CaMKII, the “Inhibition of CaMKII (in words)” value was “Not observed”. In addition, the “% Inhibition of CDK1” value on CDK1 is given as 1.8% at 1 μM. The “% Inhibition of DYRK1A” value on DYRK1A is on record as 2.2% at 1 μM. Further, the “Inhibition of PKCδ (in words)” value on PKCδ is listed as “Not observed”. For the same compound, the “Inhibition of PKA (in words)” value in the data set on PKA was “Not observed”.
With `C=CC(=O)Nc1cc(Nc2nccc(-c3cn(C)c4ccccc34)n2)c(OC)cc1N(C)CCN(C)C` [Osimertinib], the caspase-3 activity entry in the data set on caspase-3/-7 (setting [3]) and with caspase-3/-7 (setting [4]) was “Negligible increases” in each case. Besides, the “cytotoxic effect / cell proliferation” value was “very effective” with H1975 cells and “very effective; also recorded: effective in inhibiting cell proliferation” in the data set with PC-9 GR cells (8 days, PAC-1 2 μM, osimertinib 30 nM, trametinib 5 nM). Moreover, the resistant clones entry is on record as “clearly visible” in the data set with H1975 cells and “clearly visible; also recorded: resistant clones were visible; also recorded: dramatic increase” in the data set on PC-9 GR cells.
On to `C=CCc1cccc(/C=N/NC(=O)CN2CCN(Cc3ccccc3)CC2)c1O` [PAC-1], for which the caspase-3 activity entry with caspase-3/-7 (setting [3]) is recorded as “Negligible increases”; with caspase-3/-7 (K-562 cells, PAC-1 7.5 μM), “negligible single-agent activity”; in the data set on caspase-3/-7 (setting [4]) it was “Negligible increases”. Besides, the “concentration effective in delaying acquired resistance to vemurafenib, osimertinib, and ceritinib” value in data set [1] is 1 to 2 µM.
As to `CC(C)[C@H](NC(=O)c1ccc2ccccc2n1)C(=O)N[C@@H](CC(=O)O)C(=O)COc1c(F)cccc1F` [Q-VD-OPh], the “MEK1/2 cleavage in cells treated with PAC-1/drug combinations” value in the data set with MEK1 and MEK2 kinases is on record as “attenuated”. For the same compound, the “apoptotic cell death in cells treated with PAC-1/drug combinations” value in data set [2] is on record as “protection”.
As for `CCCS(=O)(=O)Nc1ccc(F)c(C(=O)c2c[nH]c3ncc(-c4ccc(Cl)cc4)cc23)c1F` [Vemurafenib], the “time at which resistant colonies were first seen” value with A375 cells worked out at 20 days.
`COc1cc2ncnc(Nc3ccc(F)c(Cl)c3)c2cc1OCCCN1CCOCC1` [gefitinib]: in the data set on PC-9 GR and H1975 cells, the “activity in PC-9 GR and H1975 cells (FIG. 7A)” value was “inactive”.
On to `CC(=O)Nc1cccc(-n2c(=O)n(C3CC3)c(=O)c3c(Nc4ccc(I)cc4F)n(C)c(=O)c(C)c32)c1` [trametinib], for which the “cytotoxic effect / cell proliferation” value in the data set with H3122 cells is reported as “minimal cytotoxic effect”.
